For 2 molecules, half-life results are on record in US11845747B2, “Ester and carbonate pyrimidine compounds as JAK kinase inhibitors” (priority 2019, dated 2023).

Data set [1] is described as follows: In vitro skin S9 metabolic stability assay (mouse). It counts as in vitro ADME. The following applies: mouse skin S9 sub-fraction, pH 7.4, 1.0 mg/mL protein, 1 mM NADPH, read-out: Half-Life; for half-life at 0.2 μM: Mouse skin S9, 0.2 μM; for half-life at 2 μM: Mouse skin S9, 2 μM. The protocol: (§1) Assay 6: In Vitro Skin S9 Metabolic Stability Assay
(§2) The objective of this assay was to assess the metabolic stability of compounds in human and mouse skin S9 sub-fraction. Human and mouse skin S9 sub-fractions obtained from Bioreclamation-IVT (Baltimore, Md.) were thawed on ice and diluted into 0.1M potassium phosphate buffer pH 7.4 to yield final incubation protein concentrations of 1.0 mg/mL. Test compounds (10 mM) were diluted into phosphate buffer to yield final incubation concentrations of 0.2 μM and 2.0 μM. Incubations were conducted at 37° C. temperature following addition of 1 mM NADPH and test aliquots were taken at time points 0, 5, 10, 20, 30 and 45 minutes. Each aliquot was crashed into water with 3% formic acid and 1 μM internal standard. The resulting samples were injected onto an LC-MS/MS system for analysis.
(§3) For each incubation, the peak area of the analytes in each t0 aliquot was set to 100% and the peak areas from subsequent time point aliquots were converted to percentage of parent compound remaining relative to t0. The percentage of parent compound remaining at each time point was converted to natural log scale and plotted versus time in minutes to determine a disappearance half-life.

Data set [2] can be described thus: In vitro skin S9 metabolic stability assay (human). The settings on record: human skin S9 sub-fraction, pH 7.4, 1.0 mg/mL protein, 1 mM NADPH, read-out: Half-Life; for half-life at 0.2 μM: Human skin S9, 0.2 μM; for half-life at 2 μM: Human skin S9, 2 μM. It counts as in vitro ADME. Here is the method: as §1, §2, §3

Molecules are shown by their SMILES.

Take `CCOc1ccc2ccc(=O)oc2c1` [7-Ethoxycoumarin, reference compound]: the half-life at 0.2 μM in data set [1] and in data set [2] was over 30 min each time. For the same molecule, the half-life at 2 μM in data set [1] and in data set [2] was over 30 min each time.
For `CC(Cc1cccc(C(F)(F)F)c1)NCCOC(=O)c1ccccc1` (centres unmarked) [Benfluorex, reference compound], in data set [1], the half-life (usually the time needed for the level to fall by half in the phase considered) at 0.2 μM is under 15 min and the half-life at 2 μM is under 15 min. Besides, in data set [2], the half-life at 0.2 μM is under 15 min and the half-life at 2 μM was under 15 min.
